Experiment: Plasma pharmacokinetics in continuous dosing period, cycle 1 day 15 steady state (HPLC-MS/MS)
Format: in vivo, human
Conditions: for Rac, accumulation ratio (mean±SD) / Vss/F (mean±SD): cycle 1 day 15
Description: Dose escalation was conducted using a modified Fibonacci 3 + 3 method (Supplementary Fig. […] At a given dose level, each patient received a single dose of senaparib followed by a 7-day washout period. They then entered a continuous dosing period to confirm the safety and PK profile, in which they received senaparib QD from day 1 to day 21 of each 3-week cycle. Progression to the next higher dose required approval from the Data Safety Monitoring Committee (DSMC) upon review of the safety and PK data of the previous dose. A 50-mg twice-daily (BID) dosing group was added (planned enrollment, n = 6 patients) based on a DSMC review of the safety, PK, and efficacy analysis of the completed QD dose groups in the phase I clinical trial of senaparib dose escalation in Australia (NCT03507543), which commenced prior to the start of this trial. Safety was assessed by recording the incidence of dose-limiting toxicities (DLTs), and the incidence, nature, severity (graded per National Cancer Institute Common Terminology Criteria for Adverse Events version 4.03 [NCI CTCAE v4.03][18]), and relatedness of treatment-emergent adverse events (TEAEs). DLTs were predefined toxicities (Supplementary Table S2) recorded over the 7 days following the single-dose administration of senaparib and during the first treatment cycle (day 1-day 21) for each dose group in the dose-escalation period only. […] Senaparib PK parameters were derived from blood samples collected from patients after the single administration, and at regular intervals during the first cycle of the dose-escalation and dose-expansion periods. Plasma concentrations of senaparib were determined using high-performance liquid chromatography-tandem mass spectrometry. […] There was no formal sample size calculation based on statistical hypothesis testing for this study; the planned enrolment was approximately 30-60 patients across the dose-escalation and dose-expansion cohorts. The actual number in the dose-escalation cohort was adjusted based on the number of dose cohorts required for the modified Fibonacci dose-escalation design and the determined MTD. Definitions for all analysis populations (safety, DLT, PK, and efficacy [intent-to-treat, ITT]) are provided in Supplementary Table S2. No statistical tests were performed; patient demographic and baseline characteristics, safety/tolerability, PK parameters, and efficacy were evaluated descriptively. ORR and DCR and their 95% CIs were calculated for each group using the exact probability method. Kaplan-Meier statistics were used to estimate DOR and PFS, and their 95% CIs for each dose group separately. Dose linearity was explored based on the single-dose data of area under the time-concentration curve (AUC) and maximum plasma concentration (Cmax) using the power model (Y = α × dose β) for the dose range 2-80 mg on a log-transformed scale. The following criterion was used to determine whether dose proportionality was met: if the (2-sided) 90% CI for β was wholly contained within the interval (1 + log(0.5)/log(r), 1 + log(2)/log(r)), then dose proportionality was supported. Here, r was defined as the ratio of the highest to lowest dose. All data analyses were carried out using SAS EG7.1 or higher or (for PK parameters) WinNonlin 7.0 or higher.

Compound: O=C(c1cc(Cn2c(=O)[nH]c(=O)c3c(F)cccc32)ccc1F)N1CCN(c2ncccn2)CC1 [Senaparib]
- Rac, accumulation ratio (mean±SD) (2 mg QD (n/N = 1/1)): 1.5
- Vss/F (mean±SD) (2 mg QD (n/N = 1/1)): 16.6 L
- Rac, accumulation ratio (mean±SD) (5 mg QD (n/N = 3/3)): 1.4±0.4
- Vss/F (mean±SD) (5 mg QD (n/N = 3/3)): 19.8 ± 7.7 L
- Rac, accumulation ratio (mean±SD) (10 mg QD (n/N = 3/3)): 1.4±0.2
- Vss/F (mean±SD) (10 mg QD (n/N = 3/3)): 24.9 ± 4.3 L
- Rac, accumulation ratio (mean±SD) (20 mg QD (n/N = 5/5)): 1.2±0.2
- Vss/F (mean±SD) (20 mg QD (n/N = 5/5)): 18.1 ± 2.5 L
- Rac, accumulation ratio (mean±SD) (40 mg QD (n/N = 3/3)): 1.1±0.1
- Rac, accumulation ratio (mean±SD) (50 mg BID (n/N = 4/4)): 1.8±0.4
- Vss/F (mean±SD) (50 mg BID (n/N = 4/4)): 39.9 ± 3.4 L
- Rac, accumulation ratio (mean±SD) (60 mg QD (n/N = 5/5)): 1.1±0.0
- Vss/F (mean±SD) (60 mg QD (n/N = 5/5)): 32.1 ± 13.0 L
- Rac, accumulation ratio (mean±SD) (80 mg QD (n/N = 9/9)): 1.2±0.1
- Vss/F (mean±SD) (80 mg QD (n/N = 9/9)): 38.8 ± 23.5 L
- Rac, accumulation ratio (mean±SD) (100 mg QD (n/N = 20/20)): 1.2±0.1
- Vss/F (mean±SD) (100 mg QD (n/N = 20/20)): 40.1 ± 21.9 L
- Rac, accumulation ratio (mean±SD) (120 mg QD (n/N = 4/4)): 1.2±0.2
- Vss/F (mean±SD) (120 mg QD (n/N = 4/4)): 1.3 ± 39.5 L
- Accumulation ratio (Rac) (after BID administration): 1.8
- Accumulation ratio (mean Rac) (after repeated QD administration): 1.1-1.5
- AUC from time zero to 24 h post dose (human, in vivo): approximately 35 918 h*ng/mL
- AUC from time zero to the last measurable concentration (human, in vivo): 33 827 h*ng/mL
- AUC0-inf, mean±SD (human, in vivo, 2 mg): 4361.8 ng·h/mL
- AUC0-t, mean±SD (human, in vivo, 2 mg): 2753.5 ng·h/mL
- CLss/F (mean±SD) (human, in vivo, 2 mg): 0.7 L/h
- Cmax, mean±SD (human, in vivo, 2 mg): 203.0 ng/mL
- Tmax, median (range) (human, in vivo, 2 mg): 2.0 (2.0-2.0) h
- t½, median (range) (human, in vivo, 2 mg): 16.0 (16.0-16.0) h
- AUC0-inf, mean±SD (human, in vivo, 5 mg): 9655.4±11 022.2 h*ng/mL
- AUC0-t, mean±SD (human, in vivo, 5 mg): 6013.7 ± 5649.0 ng·h/mL
- CLss/F (mean±SD) (human, in vivo, 5 mg): 1.6 ± 1.3 L/h
- Cmax, mean±SD (human, in vivo, 5 mg): 470.7 ± 354.0 ng/mL
- Tmax, median (range) (human, in vivo, 5 mg): 2.0 (2.0-2.0) h
- t½, median (range) (human, in vivo, 5 mg): 10.3 (6.4-21.4) h
- AUC0-inf, mean±SD (human, in vivo, 10 mg): 10 553.4±2657.5 h*ng/mL
- AUC0-t, mean±SD (human, in vivo, 10 mg): 7506.4 ± 892.6 ng·h/mL
- CLss/F (mean±SD) (human, in vivo, 10 mg): 1.3 ± 0.2 L/h
- Cmax, mean±SD (human, in vivo, 10 mg): 598.7 ± 67.9 ng/mL
- Tmax, median (range) (human, in vivo, 10 mg): 4.0 (2.0-4.0) h
- t½, median (range) (human, in vivo, 10 mg): 13.2 (9.4-16.8) h
- AUC0-inf, mean±SD (human, in vivo, 20 mg): 22 122.4±18 526.0 h*ng/mL
- AUC0-t, mean±SD (human, in vivo, 20 mg): 16 213.5±9863.9 h*ng/mL
- CLss/F (mean±SD) (human, in vivo, 20 mg): 1.6 ± 0.8 L/h
- Cmax, mean±SD (human, in vivo, 20 mg): 1483.2 ± 487.8 ng/mL
- Tmax, median (range) (human, in vivo, 20 mg): 2.0 (1.8-2.0) h
- t½, median (range) (human, in vivo, 20 mg): 9.4 (5.5-17.5) h
- AUC0-inf, mean±SD (human, in vivo, 40 mg): 22 437.1±5342.9 h*ng/mL
- AUC0-t, mean±SD (human, in vivo, 40 mg): 19 566.5±3285.1 h*ng/mL
- CLss/F (mean±SD) (human, in vivo, 40 mg): 2.1 ± 0.4 L/h
- Cmax, mean±SD (human, in vivo, 40 mg): 2013.3 ± 280.2 ng/mL
- Tmax, median (range) (human, in vivo, 40 mg): 1.9 (1.8-2.0) h
- t½, median (range) (human, in vivo, 40 mg): 7.5 (5.5-9.2) h
- AUC0-inf, mean±SD (human, in vivo, 50 mg): 38 418.9±19 776.1 h*ng/mL
- AUC0-t, mean±SD (human, in vivo, 50 mg): 17 959.6±5287.0 h*ng/mL
- CLss/F (mean±SD) (human, in vivo, 50 mg): 2.8 ± 0.8 L/h
- Cmax, mean±SD (human, in vivo, 50 mg): 2152.5 ± 354.3 ng/mL
- Tmax, median (range) (human, in vivo, 50 mg): 2.0 (1.9-3.7) h
- t½, median (range) (human, in vivo, 50 mg): 9.7 (7.8-15.2) h
- AUC0-inf, mean±SD (human, in vivo, 60 mg): 19 189.5±10 074.3 h*ng/mL
- AUC0-t, mean±SD (human, in vivo, 60 mg): 17 777.2±8739.1 h*ng/mL
- CLss/F (mean±SD) (human, in vivo, 60 mg): 4.6 ± 3.6 L/h
- Cmax, mean±SD (human, in vivo, 60 mg): 2056.0 ± 975.0 ng/mL
- Tmax, median (range) (human, in vivo, 60 mg): 2.0 (1.9-3.9) h
- t½, median (range) (human, in vivo, 60 mg): 5.8 (3.4-7.7) h
- AUC0-inf, mean±SD (human, in vivo, 80 mg): 48 747.0±33 189.7 h*ng/mL
- AUC0-t, mean±SD (human, in vivo, 80 mg): 37 727.0±21 476.1 h*ng/mL
- CLss/F (mean±SD) (human, in vivo, 80 mg): 2.9 ± 1.8 L/h
- Cmax, mean±SD (human, in vivo, 80 mg): 3487.8 ± 1649.2 ng/mL
- Tmax, median (range) (human, in vivo, 80 mg): 2.0 (1.9-3.8) h
- t½, median (range) (human, in vivo, 80 mg): 9.7 (5.8-14.4) h
- AUC0-inf, mean±SD (human, in vivo, 100 mg): 40 080.4±16 731.2 h*ng/mL
- AUC0-t, mean±SD (human, in vivo, 100 mg): 33 827.1±12 273.6 h*ng/mL
- CLss/F (mean±SD) (human, in vivo, 100 mg): 3.5 ± 1.8 L/h
- Cmax, mean±SD (human, in vivo, 100 mg): 3212.5 ± 765.1 ng/mL
- Tmax, median (range) (human, in vivo, 100 mg): 1.9 (1.8-4.1) h
- t½, median (range) (human, in vivo, 100 mg): 7.5 (5.3-16.1) h
- AUC0-inf, mean±SD (human, in vivo, 120 mg): 87 799.1±11 6874.0 h*ng/mL
- AUC0-t, mean±SD (human, in vivo, 120 mg): 62 737.2±74517.1 h*ng/mL
- CLss/F (mean±SD) (human, in vivo, 120 mg): 4.3 ± 3.3 L/h
- Cmax, mean±SD (human, in vivo, 120 mg): 5107.5 ± 4893.2 ng/mL
- Tmax, median (range) (human, in vivo, 120 mg): 2.0 (1.9-2.1) h
- t½, median (range) (human, in vivo, 120 mg): 8.8 (6.0-15.2) h

Reference: PMC10712727, “Safety, Tolerability, and Pharmacokinetics of Senaparib, a Novel PARP1/2 Inhibitor, in Chinese Patients With Advanced Solid Tumors: A Phase I Trial” (The Oncologist, 2023)
